Results reported in ChEMBL document CHEMBL1932970, “Facile synthesis of 1,2,3-triazole analogs of SGLT2 inhibitors by 'click chemistry'” (Bioorg Med Chem Lett, 2012).
The source made the active and inactive calls. No cut-off for these calls is given here.

Test system: Rattus norvegicus
Assay: Antidiabetic activity in fasted Sprague-Dawley rat assessed as increase in urinary glucose excretion at 30 mg/kg, po administered 0.5 hrs before glucose challenge measured after 24 hrs by UV spectrophotometric analysis relative to control
Type: functional, organism-based
Set-up: dose 30 mg/kg
Conditions: Urine

O=[N+]([O-])c1ccc(Cn2cc(C[C@@H]3O[C@H](CO)[C@@H](O)[C@H](O)[C@H]3O)nn2)cc1 was tested, and the Activity was “Active”.
With OC[C@H]1O[C@@H](Cc2cn(Cc3ccccc3Cl)nn2)[C@H](O)[C@@H](O)[C@@H]1O the Activity was “Active”.
For Cc1ccc(Cn2cc(C[C@@H]3O[C@H](CO)[C@@H](O)[C@H](O)[C@H]3O)nn2)cc1, the Activity was “Active”.
In the case of OC[C@H]1O[C@@H](Cc2cn(Cc3cc4ccc(Cl)cc4s3)nn2)[C@H](O)[C@@H](O)[C@@H]1O, the Activity is reported as “Active”.
In the case of OC[C@H]1O[C@@H](Cc2cn(Cc3ccc(-c4ccc(F)cc4)s3)nn2)[C@H](O)[C@@H](O)[C@@H]1O, the Activity is reported as “Active”.
For CCOc1ccc(Cc2cc([C@@H]3O[C@H](CO)[C@@H](O)[C@H](O)[C@H]3O)ccc2Cl)cc1, the Activity was “Active”.
OC[C@H]1O[C@@H](Cc2cn(Cc3ccccc3)nn2)[C@H](O)[C@@H](O)[C@@H]1O was tested, and the Activity was “Active”.
For OC[C@H]1O[C@@H](Cc2cn(Cc3nc4ccccc4s3)nn2)[C@H](O)[C@@H](O)[C@@H]1O, the Activity was “Active”.
